The structures appear in SMILES notation.

As usually defined, the melting point is the temperature, or range, at which the solid turns liquid. With `O=C(c1ccc(F)cc1)N1CCCC(c2nnc(-c3ccc(F)cc3)[nH]2)C1` (centres unmarked) [Example 1, (4-Fluoro-phenyl)-{3-[5-(4-fluoro-phenyl)-4H-[1,2,4]triazol-3-yl]-piperidin-1-yl}-methanone], the melting point came to 95 °C. For the compound `COc1ccc(-c2noc(C3CCCN(C(=O)c4ccccc4)C3)n2)cc1` (centres unmarked) [Example 3, {3-[3-(4-Methoxy-phenyl)-[1,2,4]oxadiazol-5-yl]-piperidin-1-yl}-phenyl-methanone], the melting point came to 121 °C. As to `O=C(c1ccccc1)N1CCCC(c2nc(-c3ccc(F)cc3)no2)C1` (centres unmarked) [Example 5, {3-[3-(4-Fluoro-phenyl)-[1,2,4]oxadiazol-5-yl]-piperidin-1-yl}-phenyl-methanone], the melting point was 82 to 83 °C. Then `O=C(c1cccc(F)c1)N1CCCC(c2nc(-c3ccc(F)cc3)no2)C1` (centres unmarked) [Example 6, (3-Fluoro-phenyl)-{3-[3-(4-fluoro-phenyl)-[1,2,4]oxadiazol-5-yl]-piperidin-1-yl}-methanone], with 139 to 140 °C; and `O=C(c1ccc(F)cc1)N1CCCC(c2nc(-c3ccccc3)no2)C1` (centres unmarked) [Example 7, (4-Fluoro-phenyl)-[3-(3-phenyl-[1,2,4]oxadiazol-5-yl)-piperidin-1-yl]-methanone], with 78 to 79 °C; and `O=C(c1ccc(F)cc1)N1CCCC(c2nc(-c3cccc(F)c3)no2)C1` (centres unmarked) [Example 10, (4-Fluoro-phenyl)-{3-[3-(3-fluoro-phenyl)-[1,2,4]oxadiazol-5-yl]-piperidin-1-yl}-methanone], with 86 to 89 °C.

For the compound `O=C(c1cccs1)N1CCC[C@H](c2nc(-c3ccc(F)cc3)no2)C1` [Example 13, S-(thiophen-2-yl)-{3-[3-(4-fluoro-phenyl)-[1,2,4]oxadiazol-5-yl]-piperidin-1-yl}-methanone], the melting point was 82 to 83 °C.

In turn, `Cc1nc(-c2cnccn2)sc1C(=O)N1CCC[C@H](c2nc(-c3ccc(F)cc3)no2)C1` [Example 14, {(S)-3-[3-(4-Fluoro-phenyl)-[1,2,4]oxadiazol-5-yl]-piperidin-1-yl}-(4-methyl-2-pyrazin-2-yl-thiazol-5-yl)-methanone] returned a melting point of 147 to 148 °C. Then `O=C(c1csnn1)N1CCC[C@H](c2nc(-c3ccc(F)cc3)no2)C1` [Example 18, {(S)-3-[3-(4-Fluoro-phenyl)-[1,2,4]oxadiazol-5-yl]-piperidin-1-yl}-[1,2,3]thiadiazol-4-yl-methanone], with 90 to 91 °C. Regarding `O=C(c1nc2ccccc2s1)N1CCC[C@H](c2nc(-c3ccc(F)cc3)no2)C1` [Example 19, Benzothiazol-2-yl-{(S)-3-[3-(4-fluoro-phenyl)-[1,2,4]oxadiazol-5-yl]-piperidin-1-yl}-methanone], the melting point fell in the range of 130 to 131 °C.

`Cc1cc(C(=O)N2CCC[C@H](c3nc(-c4ccc(F)cc4)no3)C2)nn1C` [Example 21, (1,5-Dimethyl-1H-pyrazol-3-yl)-{(S)-3-[3-(4-fluoro-phenyl)-[1,2,4]oxadiazol-5-yl]-piperidin-1-yl}-methanone] gave a melting point of 108 to 109 °C. As to `O=C(c1ccc(C(F)(F)F)cc1)N1CCC[C@H](c2nc(-c3ccc(F)cc3)no2)C1` [Example 22, {(S)-3-[3-(4-Fluoro-phenyl)-[1,2,4]oxadiazol-5-yl]-piperidin-1-yl}-(4-trifluoromethyl-phenyl)-methanone], the melting point was 109 to 110 °C.

Consider `N#Cc1ccc(C(=O)N2CCC[C@H](c3nc(-c4ccc(F)cc4)no3)C2)cc1` [Example 23, 4-{(S)-3-[3-(4-Fluoro-phenyl)-[1,2,4]oxadiazol-5-yl]-piperidine-1-carbonyl}-benzonitrile], for which the melting point was 129 to 130 °C. Then `O=C(c1ccno1)N1CCC[C@H](c2nc(-c3ccc(F)cc3)no2)C1` [Example 24, {(S)-3-[3-(4-Fluoro-phenyl)-[1,2,4]oxadiazol-5-yl]-piperidin-1-yl}-isoxazol-5-yl-methanone], with 93 to 94 °C; and `O=C(c1cc(F)c(F)c(F)c1)N1CCC[C@H](c2nc(-c3ccc(F)cc3)no2)C1` [Example 26, {(S)-3-[3-(4-Fluoro-phenyl)-[1,2,4]oxadiazol-5-yl]-piperidin-1-yl}-(3,4,5-trifluoro-phenyl)-methanone], with 139 to 140 °C.

As for `O=C(c1ccc(F)c(Cl)c1)N1CCC[C@H](c2nc(-c3ccc(F)cc3)no2)C1` [Example 27, (3-Chloro-4-fluoro-phenyl)-{(S)-3-[3-(4-fluoro-phenyl)-[1,2,4]oxadiazol-5-yl]-piperidin-1-yl}-methanone], the melting point is 123 to 124 °C. The compound `Cc1cc(C(=O)N2CCC[C@H](c3nc(-c4ccc(F)cc4)no3)C2)ccc1F` [Example 30, (4-Fluoro-3-methyl-phenyl)-{(S)-3-[3-(4-fluoro-phenyl)-[1,2,4]oxadiazol-5-yl]-piperidin-1-yl}-methanone] had a melting point of 106 to 107 °C. Then `O=C(c1ccc(-c2ccccn2)s1)N1CCC[C@H](c2nc(-c3ccc(F)cc3)no2)C1` [Example 31, {(S)-3-[3-(4-Fluoro-phenyl)-1,2,4-oxadiazol-5-yl]-piperidin-1-yl}-(5-pyridin-2-yl-thiophen-2-yl)-methanone], with 115 to 117 °C; and `Cc1ccsc1C(=O)N1CCC[C@H](c2nc(-c3ccc(F)cc3)no2)C1` [Example 32, {(S)-3-[3-(4-Fluoro-phenyl)-1,2,4-oxadiazol-5-yl]-piperidin-1-yl}-(3-methyl-thiophen-2-yl)-methanone], with 90 to 92 °C. Then `Cn1cccc1C(=O)N1CCC[C@H](c2nc(-c3ccc(F)cc3)no2)C1` [Example 33, {(S)-3-[3-(4-Fluoro-phenyl)-1,2,4-oxadiazol-5-yl]-piperidin-1-yl}-(1-methyl-1H-pyrrol-2-yl)-methanone], with 84 to 85 °C.

`O=C(c1ccc(F)c(F)c1)N1CCC[C@H](c2nc(-c3ccc(F)cc3)no2)C1` [Example 35, (3,4-Difluoro-phenyl)-{(S)-3-[3-(4-fluoro-phenyl)-[1,2,4]oxadiazol-5-yl]-piperidin-1-yl}-methanone] had a melting point of 120 to 121 °C. For the compound `O=C(c1ccc2ncsc2c1)N1CCC[C@H](c2nc(-c3ccc(F)cc3)no2)C1` [Example 36, Benzothiazol-6-yl-{(S)-3-[3-(4-fluoro-phenyl)-1,2,4-oxadiazol-5-yl]-piperidin-1-yl}-methanone], the melting point lay in the range of 63 to 64 °C. Then `O=C(c1nccs1)N1CCC[C@H](c2nc(-c3ccc(F)cc3)no2)C1` [Example 37, {(S)-3-[3-(4-Fluoro-phenyl)-1,2,4-oxadiazol-5-yl]-piperidin-1-yl}-thiazol-2-yl-methanone], with 94 to 95 °C; and `Cc1ncsc1C(=O)N1CCC[C@H](c2nc(-c3ccc(F)cc3)no2)C1` [Example 38, {(S)-3-[3-(4-Fluoro-phenyl)-1,2,4-oxadiazol-5-yl]-piperidin-1-yl}-(4-methyl-thiazol-5-yl)-methanone], with 122 to 124 °C. `O=C(c1ccc(N2CCOCC2)nc1)N1CCC[C@H](c2nc(-c3ccc(F)cc3)no2)C1` [Example 39, {(S)-3-[3-(4-Fluoro-phenyl)-1,2,4-oxadiazol-5-yl]-piperidin-1-yl}-(6-morpholin-4-yl-pyridin-3-yl)-methanone] yielded a melting point of 112 to 114 °C. `O=C(c1ccc2[nH]ccc2c1)N1CCC[C@H](c2nc(-c3ccc(F)cc3)no2)C1` [Example 40, {(S)-3-[3-(4-Fluoro-phenyl)-1,2,4-oxadiazol-5-yl]-piperidin-1-yl}-(1H-indol-5-yl)-methanone] gave a melting point of 191 to 192 °C. Then `O=C(CCc1ccc(F)cc1)N1CCC[C@H](c2nc(-c3ccc(F)cc3)no2)C1` [Example 42, 3-(4-Fluoro-phenyl)-1-{(S)-3-[3-(4-fluoro-phenyl)-1,2,4-oxadiazol-5-yl]-piperidin-1-yl}-propan-1-one], with 83 to 84 °C; and `O=C(c1ccc2[nH]cnc2c1)N1CCC[C@H](c2nc(-c3ccc(F)cc3)no2)C1` [Example 45, {(S)-3-[3-(4-Fluoro-phenyl)-1,2,4-oxadiazol-5-yl]-piperidin-1-yl}-benzoimidazol-6-yl-methanone], with 110 to 115 °C. `O=C(c1ccc(F)cc1)N1CCC[C@H](c2nc(-c3ccncc3)no2)C1` [Example 48, (4-Fluoro-phenyl)-[(S)-3-(3-pyridin-4-yl-[1,2,4]oxadiazol-5-yl)-piperidin-1-yl]-methanone] displayed a melting point of 113 to 115 °C.

The compound `O=C(c1ccc(F)cc1)N1CCC[C@H](c2nc(-c3ccc4ccccc4c3)no2)C1` [Example 53, (4-Fluoro-phenyl)-[(S)-3-(3-naphthalen-2-yl-[1,2,4]oxadiazol-5-yl)-piperidin-1-yl]-methanone] came in with a melting point of 142 to 143 °C. Then `O=C(c1ccc(F)c(F)c1)N1CCC[C@H](c2nc(-c3ccccc3F)no2)C1` [Example 59], with 115 to 119 °C. Then `O=C(c1ccc(F)cc1)N1CCOC(c2nc(-c3ccc(F)cc3)no2)C1` (centres unmarked) [Example 60, (4-Fluoro-phenyl)-{2-[3-(4-fluoro-phenyl)-[1,2,4]oxadiazol-5-yl]-morpholin-4-yl}-methanone], with 116 to 117 °C.

In turn, `O=C(/C=C/c1ccc(F)cc1)N1CCC[C@H](c2nc(-c3ccc(F)cc3)no2)C1` [Example 64, (E)-3-(4-Fluoro-phenyl)-1-{(S)-3-[3-(4-fluoro-phenyl)-[1,2,4]oxadiazol-5-yl]-piperidin-1-yl}-propenone] came in with a melting point of 137 to 139 °C. Then `O=C(c1ccc(F)cc1)N1CCC[C@H](c2nc(-c3ccccc3)no2)C1` [Example 69, (4-Fluoro-phenyl)-[(S)-3-(3-phenyl-[1,2,4]oxadiazol-5-yl)-piperidin-1-yl]-methanone], with 116 to 118 °C. Compound `O=C(c1ccc(F)c(F)c1)N1CCC[C@H](c2nc(-c3ccccc3)no2)C1` [Example 70, (3,4-Difluoro-phenyl)-[(S)-3-(3-phenyl-[1,2,4]oxadiazol-5-yl)-piperidin-1-yl]-methanone] had a melting point of 149 to 151 °C.

The values above are taken from patent US8163775B2, “Allosteric modulators of metabotropic glutamate receptors” (Addex Pharma SA, priority 2003, dated 2012).
